The values that follow are results of earlier work, collected in patent US20220331235A1, “COMPOSITIONS FOR ORAL MICROADHESIVE DOSAGE FORMS” (FP NUTRACEUTICALS, LLC, priority 2018, published 2022).

The conditions of series [1]: rat brain.
For series [2] the following is noted: vitamin B6: from food or supplements.

As to `[O-2].[Zn+2]` [Zn-oxide], the “plasma zinc rankings based on area under the curve and rank results per person” value (from here on “plasma zinc rankings based on area … per person”) is on record as “glycinate>gluconate>picolinate=oxide”.

`O=C([O-])c1ccccn1.O=C([O-])c1ccccn1.[Zn+2]` [Zn-picolinate]: the “plasma zinc rankings based on area … per person” value was “glycinate>gluconate>picolinate=oxide”.

For the molecule `O=C([O-])c1cc(=O)[nH]c(=O)[nH]1.[Li+]` [lithium orotate], the “level in the brain compared to the carbonate form” value in series [1] was “three-fold higher”.

In the case of `Cc1ncc(CO)c(CO)c1O` [vitamin B6, pyridoxine], the bioavailability in series [2] was 75-100%.

In the case of `NCC(=O)[O-].NCC(=O)[O-].[Zn+2]` [zinc glycinate], the “plasma zinc rankings based on area … per person” value was “glycinate>gluconate>picolinate=oxide”. The “bioavailability among four forms of zinc (oxide, picolinate, gluconate, glycinate)” value (acute uptake) is listed as “highest bioavailability”. Moreover, the “increase in bioavailability over zinc gluconate” value (versus second most-bioavailable form) is on record as 43.4%.

Regarding cobalamin [vitamin B12], the bioavailability in series [2] is listed as 1-2%.

For the molecule zinc gluconate, the “plasma zinc rankings based on area … per person” value was “glycinate>gluconate>picolinate=oxide”.
